Laboratory results published in US8536148B2, “Disabling autophagy as a treatment for lysosomal storage diseases” (The United States of America, as Represented by the …, priority 2009, dated 2013).
“Also recorded” adds a separate entry of the source.

Columns and labels:
TA muscle = format: in vivo
[1] = intraperitoneal; Sigma MSDS; cited from earlier work
autophagy = experiment: Inhibition of autophagy by 3-MA injected into TA muscle (histology, LC3, glycogen content); format: in vivo; settings: 40 l of 5 mg/ml per TA, two injections six days apart, harvested two to three days after second injection
Description: 3-MA was administered using the highest possible safety dose (40 l of 5 mg/ml per TA) determined from the above-described study. Two injections (six days apart) were given into TA muscle. Two to three days after the second injection, the treated muscles were harvested to examine the histology, the level of autophagy marker LC3, and the glycogen content.

[2] = system: HSAcre: Atg5F/F: GAA−/− mice; experiment: Effect of ERT on glycogen levels in HSAcre:Atg5F/F:GAA−/− mice (biochemical glycogen measurement, PAS staining); format: in vivo, mouse; settings: for Glycogen level, Treated: rhGAA 100 mg/kg i.v., three injections every other week; for Excess Glycogen: treated value minus wild type level
Description: (§1) Glycogen concentration in skeletal muscle was evaluated by measuring the amount of glucose released after treatment of tissue extracts with Aspergillus niger amyloglucosidase as described (Kikuchi et al., J. Clin. Invest., 101:827-833, 1998), except that the enzymatic digestion was carried out at 55° C. rather than 37° C. (Kikuchi et al., J. Clin. Invest., 101:827-833, 1998). Tissues were fixed in 3% glutaraldehyde (EM grade, Electron Microscopy sciences, Hatfield, Pa.) in 0.2M Sodium Cacodylate buffer for 4 h at 4° C., washed in 0.1M Sodium Cacodylate buffer, and stored at 4° C. in the same buffer. Samples were then imbedded in paraffin, sectioned, and stained with periodic acid-Schiff (PAS) by standard methods.
(§2) Two and a half month-old GAA−/−, MLCcre: Atg7F/F: GAA−/−, and HSAcre: Atg5F/F: GAA−/− mice received three intravenous injections of recombinant human α-glucosidase (rhGAA; Myozyme®, Genzyme Corporation, Framingham, Mass.) at a dose of 100 mg/kg every other week. To diminish a hypersensitivity reaction, diphenhydramine hydrochloride was injected intraperitoneally at a dose of 5 mg/kg 15 minutes before the second and third injections of rhGAA. The mice were sacrificed 7 days after the last injection. Twelve GAA−/−, 11 HSAcre: Atg5F/F: GAA−/−, and 9 MLCcre: Atg7F/F: GAA−/− were treated with rhGAA.

GAA−/− mice [3] = experiment: Effect of ERT on glycogen levels in GAA−/− mice (biochemical glycogen measurement, PAS staining); format: in vivo, mouse; settings: for Treated vs. Untreated GAA−/− % Reduction / Glycogen level, Treated / Excess Glycogen: GAA−/−; for Glycogen level, Treated: rhGAA 100 mg/kg i.v., three injections every other week; for Excess Glycogen: treated value minus wild type level
Description: as §1, §2

[4] = system: genetically engineered mice that lack expression of GAA; settings: mice lacking GAA; cited from earlier work
GAA−/− mice [5] = experiment: Effect of ERT on ubiquitinated (Ub) proteins in fast muscle of GAA−/− mice (FK2 immunoblot); format: in vivo, mouse; settings: gastrocnemius total lysates, ERT-treated vs untreated
Description: Whole muscle tissues were homogenized in RIPA buffer (PBS, 1% NP40, 0.5% Sodium deoxycholate, 0.1% SDS) containing a protease inhibitor cocktail tablet (Roche Diagnostics, Mannheim, Germany). Samples were centrifuged for 30 min at 13,000 rpm at 4° C. Alternatively, detergent-soluble and -insoluble fractions from muscle tissues were obtained as previously described (Hara et al. 2006). Briefly, muscle tissues were homogenized in ice-cold 0.25 M sucrose buffer (50 mM Tris-HCl pH 7.4, 1 mM EDTA; ˜350 μl/100 mg tissue) with protease inhibitors. Homogenates were centrifuged at a low speed for […] at 4° C., and the supernatants were lysed with an equal volume of cold sucrose buffer with 1% Triton X-100. Lysates were then centrifuged at 13,000 g for […] at 4° C. to collect fractions soluble in 0.5% Triton-X-100; the pellets (Triton-X-100-insoluble fractions) were resuspended in 1% SDS in PBS.
Protein concentrations of the supernatants of the total lysates or soluble fractions were measured using Bio-Rad Protein Assay (Bio-Rad Laboratories, Inc., Hercules, Calif.). Equal amounts of protein were run on SDS-PAGE gels (Invitrogen) followed by electro-transfer onto nitrocellulose membranes (Invitrogen). […]

[6] = system: MLCcre: Atg7F/F: GAA−/− mice; experiment: LAMP-1/LC3 immunostaining of single fast (psoas) fibers after ERT, MLCcre:Atg7F/F:GAA−/− mice; format: in vivo, mouse; settings: ERT-treated
Description: (§3) White gastrocnemius, soleus, and psoas muscles were removed immediately after sacrifice and pinned to Sylgaard-coated dishes for fixation with 2% paraformaldehyde in 0.1M phosphate buffer for 1 h, followed by fixation in methanol (−20° C.) for 6 min. Single fibers were obtained by manual teasing. Fibers were placed in a 24-well plate in Blocking Reagent (Vector Laboratories, Burlingame, Calif.) for 1 h. The fibers were then permeabilized, incubated with primary antibody overnight at 4° C., washed, incubated with secondary antibody for 2 h, washed again, and mounted in Vectashield (Vector Laboratories, Burlingame, Calif.) on a glass slide. The fibers were analyzed using a Zeiss 510 META confocal microscope. The white part of gastrocnemius and psoas muscles in mice are a good source of glycolytic fast-twitch type II fibers (referred to as fast fibers), whereas soleus muscle is a good source of oxidative slow-twitch type I fibers (referred to as slow fibers). At least three animals from each genotype were used to obtain single muscle fibers for immunostaining. For each immunostaining and for confocal analysis, at least 20 fibers were isolated from each of the three muscle groups. […]

GAA−/− mice [7] = experiment: LAMP-1/LC3 immunostaining of single fast (psoas) fibers after ERT, GAA−/− mice; format: in vivo, mouse; settings: ERT-treated
Description: as §3

Pompe disease = settings: cited from earlier work
[8] = system: HSAcre: Atg5F/F: GAA−/− mice; experiment: Effect of ERT on ubiquitinated (Ub) proteins in fast muscle of HSAcre:Atg5F/F:GAA−/− mice (FK2 immunoblot, immunostaining); format: in vivo, mouse; settings: ERT-treated vs untreated
Description: as §3
Protein concentrations of the supernatants of the total lysates or soluble fractions were measured using Bio-Rad Protein Assay (Bio-Rad Laboratories, Inc., Hercules, Calif.). […]

[9] = system: MLCcre: Atg7F/F: GAA−/− mice; experiment: Effect of ERT on glycogen levels in MLCcre:Atg7F/F:GAA−/− mice (biochemical glycogen measurement, PAS staining); format: in vivo, mouse; settings: for Glycogen level after ERT (in words): MLCcre:Atg7F/F:GAA−/− mice, fast muscle; for Glycogen level, Treated: rhGAA 100 mg/kg i.v., three injections every other week; for Excess Glycogen: treated value minus wild type level
Description: as §1, §2

Cn1cnc(N)c2ncnc1-2 [3-MA, 3-Methyladenine]
Highest possible safety dose (TA muscle; 40 l per TA (so in the source), intramuscular): 5 mg/mL
Toxicity / tolerability (TA muscle; mouse, in vivo, ip): no toxicity was observed
ip LD50 dose [1]: 280 mg/kg
Inhibition of autophagy in the injected muscle (autophagy): did not inhibit autophagy effectively

ERT: recombinant human α-glucosidase (rhGAA; Myozyme®, Genzyme Corporation) given intravenously as enzyme replacement therapy
Glycogen level after ERT (in words) ([2]; HSAcre:Atg5F/F:GAA−/− mice, fast muscle): reduction of glycogen levels to normal or near normal levels; also recorded: complete removal of the accumulated glycogen
Treated vs. Untreated GAA−/− % Reduction ([2]; HSAcre:Atg5F/F:GAA−/−, Gastroc): 94%
Glycogen level, Treated ([2]; HSAcre:Atg5F/F:GAA−/−, Gastroc): 4.1 ± 4.9 μg glucose/hr/mg protein
Excess Glycogen ([2]; HSAcre:Atg5F/F:GAA−/−, Gastroc): 0 μg glucose/hr/mg protein
Treated vs. Untreated GAA−/− % Reduction ([2]; HSAcre:Atg5F/F:GAA−/−, Heart): 100%
Glycogen level, Treated ([2]; HSAcre:Atg5F/F:GAA−/−, Heart): 0.0 ± 0.0 μg glucose/hr/mg protein
Excess Glycogen ([2]; HSAcre:Atg5F/F:GAA−/−, Heart): 0 μg glucose/hr/mg protein
Treated vs. Untreated GAA−/− % Reduction ([2]; HSAcre:Atg5F/F:GAA−/−, Quad): 94%
Glycogen level, Treated ([2]; HSAcre:Atg5F/F:GAA−/−, Quad): 5.0 ± 4.9 μg glucose/hr/mg protein
Excess Glycogen ([2]; HSAcre:Atg5F/F:GAA−/−, Quad): 0.6 μg glucose/hr/mg protein
Glycogen clearance, PAS-stained sections ([2]; HSAcre:Atg5F/F:GAA−/−, fast (gastrocnemius) muscle, 4 month-old): near complete glycogen clearance
Glycogen clearance after ERT (in words) (GAA−/− mice [3]; GAA−/− mice with genetically intact autophagy, skeletal muscle): cleared glycogen poorly
Treated vs. Untreated GAA−/− % Reduction (GAA−/− mice [3]; Gastroc): 27%
Glycogen level, Treated (GAA−/− mice [3]; Gastroc): 52.5 ± 22.7 μg glucose/hr/mg protein
Excess Glycogen (GAA−/− mice [3]; Gastroc): 48.1 μg glucose/hr/mg protein
Treated vs. Untreated GAA−/− % Reduction (GAA−/− mice [3]; Heart): 100%
Glycogen level, Treated (GAA−/− mice [3]; Heart): 0.6 ± 1.2 μg glucose/hr/mg protein
Excess Glycogen (GAA−/− mice [3]; Heart): 0 μg glucose/hr/mg protein
Treated vs. Untreated GAA−/− % Reduction (GAA−/− mice [3]; Quad): 28%
Glycogen level, Treated (GAA−/− mice [3]; Quad): 54.5 ± 29.6 μg glucose/hr/mg protein
Excess Glycogen (GAA−/− mice [3]; Quad): 50.1 μg glucose/hr/mg protein
Glycogen clearance from type I muscle fibers [4]: effective in clearing gylcogen from type I muscle fibers
Glycogen clearance from type II muscle fibers [4]: not type II muscle fibers
Amount of ubiquitinated (Ub) proteins, FK2 immunoblot (GAA−/− mice [5]): No difference in the amount of the Ub-proteins; also recorded: No reduction of ubiquitinated-proteins
Expanded lysosomes (LAMP-1 immunostaining) [6]: reduce in size and appear normal
Autophagic buildup (LC3 immunostaining) (GAA−/− mice [7]): this buildup persists in ERT-treated GAA−/− mice
Lysosomal size (LAMP-1 immunostaining) (GAA−/− mice [7]): even larger than those in the untreated fiber
Glycogen clearance from skeletal muscle (Pompe disease): less effective for glycogen clearance from skeletal muscle
Glycogen clearance in cardiac muscle (Pompe disease): effective for glycogen clearance in cardiac muscle
Ub-proteins, FK2 immunostaining of single fast (psoas) myofibers [8]: clearly observed in untreated, but not in ERT-treated myofibers
Amount of ubiquitinated (Ub) proteins, FK2 immunoblot ([8]; gastrocnemius, soluble and non-soluble fractions): A significant drop in the amount of Ub-proteins; also recorded: significant decrease in the amount of ubiquitinated-proteins
Glycogen level after ERT (in words) [9]: reduction of glycogen levels to normal or near normal levels
Glycogen level after ERT (in words) ([9]; listed as recombinant enzyme): dramatic reduction in the glycogen level approaching wild type levels
Treated vs. Untreated GAA−/− % Reduction ([9]; MLCcre:Atg7F/F:GAA−/−, Gastroc): 88%
Glycogen level, Treated ([9]; MLCcre:Atg7F/F:GAA−/−, Gastroc): 8.6 ± 8.9 μg glucose/hr/mg protein
Excess Glycogen ([9]; MLCcre:Atg7F/F:GAA−/−, Gastroc): 4.2 μg glucose/hr/mg protein
Treated vs. Untreated GAA−/− % Reduction ([9]; MLCcre:Atg7F/F:GAA−/−, Heart): 100%
Glycogen level, Treated ([9]; MLCcre:Atg7F/F:GAA−/−, Heart): 0.2 ± 0.4 μg glucose/hr/mg protein
Excess Glycogen ([9]; MLCcre:Atg7F/F:GAA−/−, Heart): 0 μg glucose/hr/mg protein
Treated vs. Untreated GAA−/− % Reduction ([9]; MLCcre:Atg7F/F:GAA−/−, Quad): 82%
Glycogen level, Treated ([9]; MLCcre:Atg7F/F:GAA−/−, Quad): 13.7 ± 10 μg glucose/hr/mg protein
Excess Glycogen ([9]; MLCcre:Atg7F/F:GAA−/−, Quad): 9.3 μg glucose/hr/mg protein
Glycogen clearance, PAS-stained sections ([9]; MLCcre:Atg7F/F:GAA−/−, fast (gastrocnemius) muscle, 4 month-old): near complete glycogen clearance
